Source: ChEMBL document CHEMBL5653615 (J Biol Chem, 2013)

Tests used:
[1] = molecular target: T1, Calcium/calmodulin-dependent protein kinase type IV (Homo sapiens) (UniProt Q16566); experiment: Inhibition of human CAMK4 at 500 nM by HotSpot assay relative to control
T1 sequence (whole entry): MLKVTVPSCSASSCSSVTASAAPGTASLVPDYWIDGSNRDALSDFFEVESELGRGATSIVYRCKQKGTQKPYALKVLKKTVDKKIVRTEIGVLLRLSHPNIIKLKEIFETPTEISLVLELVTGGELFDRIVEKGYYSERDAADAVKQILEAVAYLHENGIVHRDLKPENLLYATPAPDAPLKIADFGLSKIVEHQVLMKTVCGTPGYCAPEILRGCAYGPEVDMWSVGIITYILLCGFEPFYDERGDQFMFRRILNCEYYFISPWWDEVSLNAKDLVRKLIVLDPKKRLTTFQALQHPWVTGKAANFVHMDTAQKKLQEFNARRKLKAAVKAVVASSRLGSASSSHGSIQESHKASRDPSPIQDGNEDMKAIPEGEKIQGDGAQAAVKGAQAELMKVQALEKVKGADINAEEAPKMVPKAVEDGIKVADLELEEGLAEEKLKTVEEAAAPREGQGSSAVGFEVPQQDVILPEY

[2] = molecular target: T2, Dual specificity tyrosine-phosphorylation-regulated kinase 4 (Homo sapiens) (UniProt Q9NR20); experiment: Inhibition of human DYRK4 at 500 nM by HotSpot assay relative to control
T2 sequence (whole entry): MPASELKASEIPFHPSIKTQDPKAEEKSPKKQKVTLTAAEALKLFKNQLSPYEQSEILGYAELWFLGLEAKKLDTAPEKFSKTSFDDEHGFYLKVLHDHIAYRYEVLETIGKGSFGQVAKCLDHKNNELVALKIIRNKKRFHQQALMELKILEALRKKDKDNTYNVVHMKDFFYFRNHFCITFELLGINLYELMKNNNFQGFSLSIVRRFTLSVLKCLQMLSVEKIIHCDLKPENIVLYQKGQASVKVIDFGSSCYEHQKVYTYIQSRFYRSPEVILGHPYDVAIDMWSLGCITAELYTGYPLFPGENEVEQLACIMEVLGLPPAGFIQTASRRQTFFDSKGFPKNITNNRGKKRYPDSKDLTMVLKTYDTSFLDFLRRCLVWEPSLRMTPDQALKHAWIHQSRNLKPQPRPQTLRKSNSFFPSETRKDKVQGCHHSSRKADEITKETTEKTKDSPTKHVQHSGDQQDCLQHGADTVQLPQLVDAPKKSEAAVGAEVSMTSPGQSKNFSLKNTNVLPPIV

[3] = molecular target: T3, MAP/microtubule affinity-regulating kinase 4 (Homo sapiens) (UniProt Q96L34); experiment: Inhibition of human MARK4 at 500 nM by HotSpot assay relative to control
T3 sequence (whole entry): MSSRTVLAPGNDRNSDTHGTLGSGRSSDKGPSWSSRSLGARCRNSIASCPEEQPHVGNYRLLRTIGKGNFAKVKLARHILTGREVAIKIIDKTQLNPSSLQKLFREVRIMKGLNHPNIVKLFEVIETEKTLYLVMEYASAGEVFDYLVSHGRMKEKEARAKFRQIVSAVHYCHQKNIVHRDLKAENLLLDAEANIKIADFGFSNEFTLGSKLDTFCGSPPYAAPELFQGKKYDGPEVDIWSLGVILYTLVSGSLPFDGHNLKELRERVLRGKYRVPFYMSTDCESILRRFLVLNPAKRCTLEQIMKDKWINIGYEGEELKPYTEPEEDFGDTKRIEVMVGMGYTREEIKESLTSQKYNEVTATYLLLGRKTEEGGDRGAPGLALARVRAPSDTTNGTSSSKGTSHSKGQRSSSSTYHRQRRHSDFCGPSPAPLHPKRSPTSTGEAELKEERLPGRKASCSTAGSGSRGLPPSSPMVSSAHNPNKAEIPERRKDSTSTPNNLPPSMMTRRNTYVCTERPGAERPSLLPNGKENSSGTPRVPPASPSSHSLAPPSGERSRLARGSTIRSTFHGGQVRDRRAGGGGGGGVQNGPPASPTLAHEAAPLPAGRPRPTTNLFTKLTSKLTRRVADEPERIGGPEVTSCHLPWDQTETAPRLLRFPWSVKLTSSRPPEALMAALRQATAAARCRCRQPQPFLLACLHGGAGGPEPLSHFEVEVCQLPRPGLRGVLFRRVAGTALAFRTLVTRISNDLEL

[4] = molecular target: Myosin light chain kinase 2, skeletal/cardiac muscle (Homo sapiens) (UniProt Q9H1R3); experiment: Inhibition of human MYLK2 at 500 nM by HotSpot assay relative to control
Sequence of Myosin light chain kinase 2, skeletal/cardiac muscle (Homo sapiens) (Q9H1R3 whole entry): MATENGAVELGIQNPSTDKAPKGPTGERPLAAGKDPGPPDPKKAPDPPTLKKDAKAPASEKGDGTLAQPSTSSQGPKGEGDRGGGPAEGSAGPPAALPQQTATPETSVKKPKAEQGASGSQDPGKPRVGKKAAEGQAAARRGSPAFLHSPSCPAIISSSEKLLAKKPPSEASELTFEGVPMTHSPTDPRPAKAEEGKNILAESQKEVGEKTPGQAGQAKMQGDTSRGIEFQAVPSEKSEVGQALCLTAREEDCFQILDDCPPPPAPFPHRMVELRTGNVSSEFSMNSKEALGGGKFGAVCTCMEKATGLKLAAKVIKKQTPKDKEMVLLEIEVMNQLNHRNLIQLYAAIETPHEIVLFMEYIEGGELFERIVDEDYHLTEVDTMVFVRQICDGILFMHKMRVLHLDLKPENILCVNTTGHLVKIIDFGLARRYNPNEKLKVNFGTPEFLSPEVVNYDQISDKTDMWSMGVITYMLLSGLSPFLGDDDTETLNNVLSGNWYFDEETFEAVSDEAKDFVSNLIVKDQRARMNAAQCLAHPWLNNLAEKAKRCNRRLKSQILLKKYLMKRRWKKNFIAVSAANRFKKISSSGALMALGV

[5] = molecular target: T4, Serine/threonine-protein kinase ULK2 (Homo sapiens) (UniProt Q8IYT8); experiment: Inhibition of human ULK2 at 500 nM by HotSpot assay relative to control
T4 sequence (whole entry): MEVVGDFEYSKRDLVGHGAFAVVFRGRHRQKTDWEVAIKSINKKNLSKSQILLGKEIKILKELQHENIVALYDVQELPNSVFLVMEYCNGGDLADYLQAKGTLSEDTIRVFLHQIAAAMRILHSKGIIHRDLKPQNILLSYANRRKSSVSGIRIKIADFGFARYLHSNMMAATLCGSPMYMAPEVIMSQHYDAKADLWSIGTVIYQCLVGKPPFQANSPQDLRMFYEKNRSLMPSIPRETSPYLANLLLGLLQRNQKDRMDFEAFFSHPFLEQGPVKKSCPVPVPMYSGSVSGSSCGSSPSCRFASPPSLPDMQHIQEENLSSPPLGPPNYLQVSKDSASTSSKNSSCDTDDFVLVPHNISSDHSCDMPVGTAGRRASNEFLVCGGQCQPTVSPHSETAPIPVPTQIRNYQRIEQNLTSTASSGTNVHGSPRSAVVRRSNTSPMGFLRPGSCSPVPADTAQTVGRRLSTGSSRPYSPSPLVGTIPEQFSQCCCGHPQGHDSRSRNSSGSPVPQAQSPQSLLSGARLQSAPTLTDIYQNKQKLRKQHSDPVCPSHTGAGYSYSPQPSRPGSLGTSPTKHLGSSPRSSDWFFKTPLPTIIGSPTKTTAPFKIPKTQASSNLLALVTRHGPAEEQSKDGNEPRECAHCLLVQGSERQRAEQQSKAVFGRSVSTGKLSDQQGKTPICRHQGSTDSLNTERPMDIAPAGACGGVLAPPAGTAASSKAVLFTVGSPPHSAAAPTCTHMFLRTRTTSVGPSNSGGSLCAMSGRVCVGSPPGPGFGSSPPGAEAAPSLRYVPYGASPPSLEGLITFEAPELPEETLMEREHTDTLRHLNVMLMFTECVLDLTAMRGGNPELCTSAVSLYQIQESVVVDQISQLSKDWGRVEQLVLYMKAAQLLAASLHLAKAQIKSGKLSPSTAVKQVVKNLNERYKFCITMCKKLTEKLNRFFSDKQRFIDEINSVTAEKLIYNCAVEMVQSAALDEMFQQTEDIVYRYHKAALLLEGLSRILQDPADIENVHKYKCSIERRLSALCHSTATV

| SMILES | inhibition [1] | inhibition [2] | inhibition [3] | inhibition [4] | inhibition [5] |
| --- | --- | --- | --- | --- | --- |
| Oc1n[nH]c2nnc(-c3c(-c4ccccc4)nn4ccccc34)cc12 | 0.79% | 4.52% | -3.17% | -2.71% | 0.86% |
| Nc1n[nH]c2nnc(-c3c(-c4ccccc4)nn4ccccc34)cc12 | 5.76% | 4.67% | -4.7% | -0.61% | 0.02% |
